Experiment [1] concerns Pfu DNA Polymerase I and Pfu DNA Polymerase II. Briefly: PCR with Pfu DNA Polymerase I plus Pfu DNA Polymerase II in the presence of acidic substances. The experiment is classed as biochemical, Pyrococcus furiosus. Conditions: commercially available sodium alginate, 100 to 1000 centipoises; Example 12 conditions. The protocol: Using λDNA as a template, and each of primers λ1 and λ3, primers λ1 and λ4, or primers λ1 and λ5 as a primer pair, the reaction mixture having the following composition was prepared.
Composition of Reaction Mixture: 10 mM Tris-hydrochloric acid (pH 9.2), 75 mM potassium chloride, 6 mM magnesium chloride, 0.4 mM each of dATP, dCTP, dGTP and dTTP, 0.01% BSA, 1.25 U of Pfu DNA Polymerase I and 1.25 U of Pfu DNA Polymerase II, 500 pg of λDNA, and 5 pmol each of the primers, 5 ng or 50 ng of sulfated-fucose-containing polysaccharide-F (a final volume being 25 μl). In addition, as a control, one without addition of sulfated-fucose-containing polysaccharide-F was prepared.
The reaction in 30 cycles was carried out for each of these reaction mixtures, wherein one cycle of reaction comprises a process consisting of 98° C., 0 seconds—68° C., 0 seconds. Thereafter, 5 μl of the resulting reaction mixture was subjected to electrophoresis on 1% agarose gel containing ethidium bromide in an amount of 0.00005%, whereby an amplified fragment was confirmed.
PCR was carried out by using in combination Pfu DNA Polymerase II obtained in Example 1 and Pfu DNA Polymerase I (manufactured by Stratagene), which is α-type DNA polymerase, and sodium alginate, which is an acidic substance.
A reaction mixture comprising λDNA as a template, primers λ1 and λ3 as a primer pair was prepared, and PCR was carried out. […]

The test system of experiment [2] is TaKaRa EX-Taq DNA Polymerase. The experiment can be described thus: LA-PCR with TaKaRa EX-Taq DNA Polymerase in the presence of acidic substances. Type of experiment: biochemical. The note with it: 10 kb fragment. The protocol:
(1) The effects of the acidic substances were studied on LA-PCR method comprising a combination of DNA polymerase having 3′→5′ exonuclease activity, and DNA polymerase having no such activity. A reaction mixture comprising λDNA as a template, primers λ1 and λ8 as a primer pair was prepared, and PCR was carried out. In this PCR, TaKaRa EX-Taq DNA Polymerase (manufactured by Takara Shuzo Co., Ltd.) was used. The composition of the reaction mixture is as follows.
In the following example, PCR was carried out in Fast mode by using TaKaRa PCR Thermal Cycler Personal (manufactured by Takara Shuzo Co., Ltd.).
[…] Further, 1 ng of the sulfated-fucose-containing polysaccharide-F or 0.5 μg of sodium alginate was respectively added to the above reaction mixture.
[…] After the termination of the reaction, 5 μl of the resulting reaction mixture was subjected to electrophoresis on 1% agarose gel containing ethidium bromide in an amount of 0.00005%, whereby an amplified fragment was confirmed.
Further, PCR was carried out for a reaction having the same composition as the above reaction mixture except for using 100 pg of λDNA as template DNA, and adding 0.25 μg of sodium alginate or 1 ng of the sulfated-fucose-containing polysaccharide-F as an acidic substance.
The reaction was carried out in 29 cycles, wherein one cycle of reaction comprises a process consisting of 98° C., 5 seconds—68° C., 3 minutes. […]

In another experiment the test system is KOD dash DNA Polymerase. Briefly: PCR with KOD dash DNA Polymerase in the presence of acidic substances. The experiment is classed as biochemical. Conditions: 12 kb fragment; 10 pg λDNA, primers λ1/λ9, 25 cycles 98°C 5 s–68°C 3 min; amount added 0.5 μg. Here is the method: (2) The effects of the acidic substances were studied for KOD dash DNA Polymerase (manufactured by TOYOBO CO., LTD.), comprising a combination of DNA polymerase having 3′→5′ exonuclease activity, and DNA polymerase having no such activity. A reaction mixture comprising λDNA as a template, primers λ1 and λ9 as a primer pair was prepared, and PCR was carried out. In the following example, PCR was carried out in Fast mode by using TaKaRa PCR Thermal Cycler Personal (manufactured by Takara Shuzo Co., Ltd.). The composition of the reaction mixture is as follows. Composition of Reaction Mixture: exclusive buffer attached for KOD dash DNA Polymerase, 0.2 mM each of dATP, dCTP, dGTP and dTTP, 10 pg of λDNA, 2.5 U of KOD dash DNA Polymerase, and 10 pmol each of primers λ1 and λ9 (a final volume being 50 μl). Further, 1 ng of the sulfated-fucose-containing polysaccharide-F or 0.5 μg of sodium alginate was respectively added to the above reaction mixture.
The reaction was carried out in 25 cycles, wherein one cycle of reaction comprises a process consisting of 98° C., 5 seconds—68° C., 3 minutes. After the termination of the reaction, 5 μl of the resulting reaction mixture was subjected to electrophoresis on 1% agarose gel containing ethidium bromide in an amount of 0.00005%, whereby an amplified fragment was confirmed.

As for sodium alginate, in experiment [1], the “Amplification efficiency for DNA synthesis, sodium alginate of each viscosity” value was “completely the same improvements”. Also, the “Amplification Results” value in experiment [2] (template DNA 10 pg, primers λ1/λ8, 27 cycles 98°C 5 s–68°C 3 min, amount added 0.5 μg) is given as “++ (Intensive amplification being observed)”; in experiment [2] (template DNA 100 pg, primers λ1/λ8, 29 cycles 98°C 5 s–68°C 3 min, amount added 0.25 μg), “++ (Intensive amplification being observed)”; with KOD dash DNA Polymerase, “++ (Intensive amplification being observed)”.

Source of the values: patent publication US8367328B2, “Method for synthesizing DNA” (Takara Bio Inc., priority 1998, dated 2013).
